Drawing on US8048899B2, “Compounds which selectively modulate the CB2 receptor” (Boehringer Ingelheim International GmbH, priority 2008, dated 2011), this text covers EC50 for 27 molecules.

Where two headings read alike, the source gives them in different places.

The target in one experiment is T1, human CB2R (Homo sapiens, UniProt P34972).
T1 construct: host or cells: CHO cells
As to the kind of experiment: CB2R mediated modulation of cAMP synthesis. Type of experiment: cell-based. As to the method: B. CB2R Mediated Modulation of cAMP Synthesis:
Compounds of the invention are evaluated for their CB2 agonist or inverse agonistic activity in accordance with the following experimental method.
(§1) CHO cells expressing human CB2R (Euroscreen) are plated at a density of 5000 cells per well in 384 well plates and incubated overnight at 37° C. After removing the media, the cells are treated with test compounds diluted in stimulation buffer containing 1 mM IBMX, 0.25% BSA and 10 uM Forskolin. The assay is incubated for 30 minutes at 37° C. Cells are lysed and the cAMP concentration is measured using DiscoverX-XS cAMP kit, following the manufacturer's protocol. In this setting, agonists will decrease forskolin induced production of cAMP while inverse agonists will further increase forskolin induced production of cAMP. EC50 of agonists are calculated as follows. The maximal amount of cAMP produced by forskolin compared to the level of cAMP inhibited by 1 uM CP55940 is defined as 100%. […] Data is analyzed using a four-parameter logistic model. (Model 205 of XLfit 4.0).

Another experiment addresses T2, human CB1R (Homo sapiens, UniProt P21554).
T2 construct: host or cells: CHO cells
Put plainly: CB1R mediated modulation of cAMP synthesis. It counts as cell-based. As to the method:
C. CB1R Mediated Modulation of cAMP Synthesis:
Compounds of the invention are evaluated for their CB1 agonist or inverse agonistic activity in accordance with the following experimental method.
as §1, with “CB1R” for “CB2R”

Setting [1] is: CHO cells expressing human CB2R, inhibition of forskolin-stimulated cAMP synthesis, read-out: CB2 EC50.
[2] abbreviates: CHO cells expressing human CB1R, inhibition of forskolin-stimulated cAMP synthesis, read-out: CB1 EC50.

Usually EC50 stands for the midpoint of the concentration-response curve.

T1 sequence (P34972 whole entry): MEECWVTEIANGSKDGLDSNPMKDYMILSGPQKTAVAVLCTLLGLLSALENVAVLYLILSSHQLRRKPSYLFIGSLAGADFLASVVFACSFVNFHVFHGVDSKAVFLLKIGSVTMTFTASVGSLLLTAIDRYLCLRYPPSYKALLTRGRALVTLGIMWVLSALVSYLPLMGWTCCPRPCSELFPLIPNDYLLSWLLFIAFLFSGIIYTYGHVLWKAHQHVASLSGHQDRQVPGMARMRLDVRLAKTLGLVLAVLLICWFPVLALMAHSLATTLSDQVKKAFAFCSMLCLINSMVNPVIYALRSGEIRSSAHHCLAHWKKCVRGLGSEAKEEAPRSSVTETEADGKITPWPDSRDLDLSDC
T2 sequence (P21554 whole entry): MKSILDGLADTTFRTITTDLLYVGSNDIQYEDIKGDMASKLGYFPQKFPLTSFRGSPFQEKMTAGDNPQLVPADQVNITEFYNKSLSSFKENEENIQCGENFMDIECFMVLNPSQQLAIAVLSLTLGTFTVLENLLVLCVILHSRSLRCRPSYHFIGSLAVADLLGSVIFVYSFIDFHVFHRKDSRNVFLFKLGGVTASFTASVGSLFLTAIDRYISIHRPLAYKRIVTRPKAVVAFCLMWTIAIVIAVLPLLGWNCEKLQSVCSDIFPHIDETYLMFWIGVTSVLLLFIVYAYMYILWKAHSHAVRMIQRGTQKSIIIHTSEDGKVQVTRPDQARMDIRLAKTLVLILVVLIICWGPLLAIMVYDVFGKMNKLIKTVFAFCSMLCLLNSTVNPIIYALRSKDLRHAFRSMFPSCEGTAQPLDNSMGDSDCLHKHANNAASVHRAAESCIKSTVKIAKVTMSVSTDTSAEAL

`CC(C)(C(=O)Nc1nnc(-c2ccc(O)cc2)[nH]1)S(=O)(=O)CC1CCOCC1`: the EC50 at human CB2R is 100 nM; on human CB1R, greater than 20000 nM.

As for `CC[C@H](C)S(=O)(=O)C(C)(C)C(=O)Nc1cc(C(C)(C)CO)no1`, the concentration giving a half-maximal response (EC50) on human CB2R (setting [1]) is 118 nM; at human CB1R (setting [2]) it was greater than 50000 nM.

Regarding `CC(C)(C(=O)Nc1cc(C2(CO)CCC2)no1)S(=O)(=O)C1CCOCC1`, the half-maximal effective concentration (EC50) at human CB2R was 77 nM; on human CB1R, greater than 50000 nM.

As to `CC(C)(CO)c1nnc(NC(=O)C(C)(C)S(=O)(=O)C2CCOCC2)s1`, the half-maximal effective concentration (EC50) at human CB2R was 48 nM; on human CB1R, greater than 50000 nM.

Regarding `COCC(C)(C)c1cc(NC(=O)C(C)(C)S(=O)(=O)CC2CC2)on1`, the EC50 is 120 nM at human CB2R (setting [1]) and greater than 50000 nM on human CB1R (setting [2]).

`COc1ccc(-c2nnc(NC(=O)C(C)(C)S(=O)(=O)C[C@H]3CCOC3)[nH]2)cc1`: the half-maximal effective concentration (EC50) at human CB2R was 90 nM; on human CB1R, greater than 50000 nM.

Regarding `CC(C)(CO)c1cc(NC(=O)C(C)(C)S(=O)(=O)c2cccc(F)c2F)no1`, the values for the concentration giving a half-maximal response (EC50) on human CB2R and at human CB1R were 69 nM and greater than 50000 nM, respectively.

As to `CC(C)(CO)c1cc(NC(=O)C(C)(C)S(=O)(=O)CC2CCC2)on1`, the EC50 is 82 nM at human CB2R and greater than 20000 nM on human CB1R.

For the molecule `CC(C)(CO)c1cc(NC(=O)C(C)(C)S(=O)(=O)CC2CCC(=O)CC2)on1`, the half-maximal effective concentration (EC50) was 68 nM on human CB2R and greater than 50000 nM at human CB1R.

For `CC(C)(C(=O)Nc1cc(C2(CO)CCC2)no1)S(=O)(=O)CC1CCC1`, the results for the half-maximal effective concentration (EC50) on human CB2R and at human CB1R were 74 nM and greater than 50000 nM, respectively.

Regarding `COCC(C)(C)c1cc(NC(=O)C(C)(C)S(=O)(=O)C2CCN(S(C)(=O)=O)CC2)no1`, the EC50 on human CB2R is 6.2 nM; at human CB1R, greater than 50000 nM.

For `CC(C)(C(=O)Nc1nnc(-c2ccc(O)cc2)[nH]1)S(=O)(=O)C1CCOCC1`, the EC50 on human CB2R is 5 nM; at human CB1R, greater than 20000 nM.

With `COc1ccc(-c2nnc(NC(=O)C(C)(C)S(=O)(=O)CC3CCC3)[nH]2)c(F)c1`, the EC50 was 7.6 nM on human CB2R and greater than 20000 nM at human CB1R.

`CC(C)(C(=O)Nc1nc(-c2cccc(O)c2)n[nH]1)S(=O)(=O)C1CCOCC1`: the concentration for a half-maximal effect (EC50) is 130 nM on human CB2R (setting [1]) and greater than 50000 nM on human CB1R (setting [2]).

As for `COCC(C)(C)c1cc(NC(=O)C(C)(C)S(=O)(=O)C2CCOCC2)on1`, the concentration for a half-maximal effect (EC50) is 3.1 nM on human CB2R and greater than 20000 nM on human CB1R.

Take `CC[C@@H](C)S(=O)(=O)C(C)(C)C(=O)Nc1nnc(-c2ccc(OC)cc2)[nH]1`: the half-maximal effective concentration (EC50) is 83 nM on human CB2R and greater than 50000 nM at human CB1R.

In the case of `CC(C)(C(=O)Nc1nnc(-c2ccc(OC(F)(F)F)cc2)[nH]1)S(=O)(=O)C1CCOCC1`, the figures for the half-maximal effective concentration (EC50) at human CB2R (setting [1]) and at human CB1R (setting [2]) were 194 nM and greater than 20000 nM, respectively.

For the molecule `CC(C)(C(=O)Nc1nc(-c2ccc(O)cc2)n[nH]1)S(=O)(=O)C1CCCC1`, the EC50 on human CB2R is 36 nM; on human CB1R, greater than 50000 nM.

Consider `COc1ccc(-c2nnc(NC(=O)C(C)(C)S(=O)(=O)C3CCOCC3)[nH]2)c(F)c1`, for which the values for the 50% effective concentration (EC50) on human CB2R and at human CB1R were 13 nM and greater than 50000 nM, respectively.

Turning to `CC(C)(C(=O)Nc1nnc(-c2ccc(O)cc2F)[nH]1)S(=O)(=O)CC1CCC1`, the EC50 turned out to be 9.4 nM on human CB2R and 35000 nM at human CB1R.

`COc1ccc(-c2nnc(NC(=O)C(C)(C)S(=O)(=O)c3ccc(S(C)(=O)=O)cc3F)[nH]2)cc1`: the EC50 is 2.1 nM at human CB2R and greater than 20000 nM on human CB1R.

Regarding `CC(C)(C(=O)Nc1nnc(-c2ccc(OC(F)(F)F)cc2)[nH]1)S(=O)(=O)CC1CCOCC1`, the EC50 at human CB2R (setting [1]) was 337 nM; on human CB1R (setting [2]) it was greater than 20000 nM.

With `CC[C@H](C)S(=O)(=O)C(C)(C)C(=O)Nc1cc(C2(CO)CCCC2)no1`, the EC50 at human CB2R is 82 nM; at human CB1R it was greater than 20000 nM.

As for `COc1ccc(-c2nnc(NC(=O)C(C)(C)S(=O)(=O)CC3CCOCC3)[nH]2)cc1`, the values for the EC50 on human CB2R and at human CB1R were 9.5 nM and greater than 50000 nM, respectively.

For `CC(C)(C(=O)Nc1cc(C2(CO)CCCCC2)no1)S(=O)(=O)CC1CCC1`, the EC50 at human CB2R was 67 nM; on human CB1R, greater than 20000 nM.

With `COc1ccccc1-c1n[nH]c(NC(=O)C(C)(C)S(=O)(=O)CC2CC2)n1`, the EC50 was 15 nM on human CB2R and greater than 20000 nM at human CB1R.

Regarding `CC(C)(C(=O)Nc1nc(-c2ccccc2O)n[nH]1)S(=O)(=O)C1CCOCC1`, the values for the 50% effective concentration (EC50) on human CB2R and at human CB1R were 30 nM and greater than 20000 nM, respectively.
